How the values were obtained:
ITK = ITK (Homo sapiens (Human), UniProt Q08881); experiment: ITK inhibitor binding potency (LanthaScreen competitive binding assay); conditions: read-out: ITK Inh. IC50
Procedure, shortened: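 TR-FRET tracer displacement: 10 nM GST-ITK, 2 nM Eu-anti-GST, 50 nM tracer-236 in HEPES pH 7.5, MgCl2, 2% DMSO; 11 points, 20 µM–0.34 nM. Run with or without 2 h compound–ITK preincubation before tracer; IC50 by 4-parameter fit of emission ratio.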

JAK3 = JAK3 (Homo sapiens (Human), UniProt P52333); experiment: JAK3 enzyme activity assay (Caliper mobility shift); assay type: biochemical; conditions: ATP at Km level; read-out: JAK3 Inh. IC50
Procedure, shortened: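 Caliper mobility-shift assay with 2.5 nM JAK3, […] and […] (Km level) in 20 mM HEPES pH 7.5, 10 mM MgCl2, 0.01% BSA, 0.0005% Tween-20, 2% DMSO. 11-point dose-response from […] 0.34 nM; IC50 by 4-parameter logistic fit of product/substrate signal.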

[1] = system: JAK1/3 phosphorylation of its substrate, STAT5, at Y694; experiment: JAK1/3 target modulation assay (IL-2 stimulated STAT5 Y694 phosphorylation in PBMC); assay type: cell-based; conditions: Homo sapiens, PBMC, Primary human peripheral blood mononuclear cells, IL-2 25 ng/mL; read-out: IL2-STAT5 Inh. IC50
Procedure, shortened: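 Human PBMCs preincubated with compound for 1 h at 37 °C, then stimulated with IL-2 (25 ng/mL final) for 5 min. Cells were lysed and phospho-STAT5a,b (Y694) measured by MSD electrochemiluminescence immunoassay, single-plex or multiplex with total STAT5a,b.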

[2] = system: ITK phosphorylation of its substrate, PLCγ1, at Y783; experiment: ITK target modulation assay (PLCγ1 Y783 phosphorylation, anti-CD3 stimulated Jurkat T cells); assay type: cell-based; conditions: Homo sapiens, Jurkat, anti-CD3 Dynabeads stimulation, read-out: PLC-γ Inh. IC50
Procedure, shortened: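 Jurkat cells (400,000/well) were preincubated with compound for 1 h at 37 °C (0.1% DMSO final), then stimulated with anti-CD3 Dynabeads (bead:cell 2:1). Hypotonic lysates were dot-blotted and probed for phospho-PLCγ1 Y783 and total PLCγ1, with quantification by dual-channel infrared imaging.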

JAK3, sequence (P52333 781-1124): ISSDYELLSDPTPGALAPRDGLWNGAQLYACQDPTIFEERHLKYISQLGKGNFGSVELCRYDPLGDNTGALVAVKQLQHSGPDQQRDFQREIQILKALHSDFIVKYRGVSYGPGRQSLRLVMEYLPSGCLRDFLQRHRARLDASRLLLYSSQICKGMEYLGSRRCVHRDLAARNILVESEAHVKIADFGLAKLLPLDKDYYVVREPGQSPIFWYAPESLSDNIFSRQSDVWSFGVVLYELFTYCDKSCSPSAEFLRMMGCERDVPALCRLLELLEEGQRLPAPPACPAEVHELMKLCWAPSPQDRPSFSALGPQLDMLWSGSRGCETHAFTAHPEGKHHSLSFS
ITK, sequence (Q08881 whole entry): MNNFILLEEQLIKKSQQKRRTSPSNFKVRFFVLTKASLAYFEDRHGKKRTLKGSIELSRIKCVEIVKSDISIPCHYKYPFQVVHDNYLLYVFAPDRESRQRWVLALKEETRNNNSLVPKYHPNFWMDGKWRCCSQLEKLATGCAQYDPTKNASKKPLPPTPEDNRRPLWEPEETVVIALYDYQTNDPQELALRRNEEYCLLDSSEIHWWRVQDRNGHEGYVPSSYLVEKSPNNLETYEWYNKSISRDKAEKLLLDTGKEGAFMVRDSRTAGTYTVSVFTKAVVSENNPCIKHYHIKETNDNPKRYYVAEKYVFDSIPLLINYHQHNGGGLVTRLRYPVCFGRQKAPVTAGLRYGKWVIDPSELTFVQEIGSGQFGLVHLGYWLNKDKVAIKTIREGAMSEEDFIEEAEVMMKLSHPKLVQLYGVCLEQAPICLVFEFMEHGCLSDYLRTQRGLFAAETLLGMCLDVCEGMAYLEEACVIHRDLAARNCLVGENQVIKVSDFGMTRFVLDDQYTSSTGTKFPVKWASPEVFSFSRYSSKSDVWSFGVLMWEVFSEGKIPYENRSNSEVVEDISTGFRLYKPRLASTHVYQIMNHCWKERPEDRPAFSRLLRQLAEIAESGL

| IC50 (ITK) | IC50 (JAK3) | IC50 [1] | IC50 [2] | Structure (SMILES) |
| --- | --- | --- | --- | --- |
| ≤ 10 nM | ≤ 10 nM | 100 to 1000 nM | 100 to 1000 nM | C=CC(=O)N1CCC[C@@H](Nc2ncnc3[nH]cc(CC4CCC4)c23)C1 [Example 20, (R)-1-(3-((5-(cyclobutylmethyl)-7H-pyrrolo[2,3-d]pyrimidin-4-yl)amino)piperidin-1-yl)prop-2-en-1-one] |
| ≤ 10 nM | 10 to 100 nM | > 1000 nM | 100 to 1000 nM | C[C@H]1CC[C@@H](Nc2ncnc3[nH]cc([C@@H]4CC4(F)F)c23)CN1C(=O)/C=C/CN(C)C (single isomer, unassigned) [Example 61] |
| 10 to 100 nM | 10 to 100 nM | > 1000 nM | 100 to 1000 nM | C=CC(=O)N1CC(Nc2ncnc3[nH]cc(CC4CC4)c23)CCC1C(C)C (stereo not drawn) [Example 41, 1-(5-((5-(cyclopropylmethyl)-7H-pyrrolo[2,3-d]pyrimidin-4-yl)amino)-2-isopropylpiperidin-1-yl)prop-2-en-1-one] |
| > 100 nM | > 100 nM | > 1000 nM | > 1000 nM | C/C=C/C(=O)N1C[C@H](Nc2ncnc3[nH]cc([C@H]4CC4(F)F)c23)CC[C@@H]1C (single isomer, unassigned) [Example 57] |
| ≤ 10 nM | ≤ 10 nM | 100 to 1000 nM | 100 to 1000 nM | C=CC(=O)N1C[C@H](Nc2ncnc3[nH]cc([C@H]4C[C@@H]4COC)c23)CC[C@@H]1C (single isomer, unassigned) [Example 46] |
| ≤ 10 nM | ≤ 10 nM | 100 to 1000 nM | ≤ 100 nM | C=CC(=O)N1CCC[C@@H](Nc2ncnc3[nH]cc(C4CC4(F)F)c23)C1 (stereo partly drawn) [Example 27, 1-((3R)-3-((5-(2,2-difluorocyclopropyl)-7H-pyrrolo[2,3-d]pyrimidin-4-yl)amino)piperidin-1-yl)prop-2-en-1-one] |
| > 100 nM | > 100 nM | > 1000 nM | > 1000 nM | C=CC(=O)N1CCC[C@@H](Nc2ncnc3[nH]cc(C(C)C4CC4)c23)C1 (stereo partly drawn) [Example 21, 1-((3R)-3-((5-(1-cyclopropylethyl)-7H-pyrrolo[2,3-d]pyrimidin-4-yl)amino)piperidin-1-yl)prop-2-en-1-one] |
| ≤ 10 nM | ≤ 10 nM | 100 to 1000 nM | ≤ 100 nM | C=CC(=O)N1C[C@H](Nc2ncnc3[nH]cc(C(=O)C4CCC4)c23)CC[C@@H]1C [Example 17, 1-((2S,5R)-5-((5-(cyclobutanecarbonyl)-7H-pyrrolo[2,3-d]pyrimidin-4-yl)amino)-2-methylpiperidin-1-yl)prop-2-en-1-one] |
| ≤ 10 nM | 10 to 100 nM | > 1000 nM | 100 to 1000 nM | C=CC(=O)N1CC[C@@H](Nc2ccnc3[nH]cc(C(=O)C4CC4)c23)C1 [Example 15, (R)-1-(3-((3-(cyclopropanecarbonyl)-1H-pyrrolo[2,3-b]pyridin-4-yl)amino)pyrrolidin-1-yl)prop-2-en-1-one] |
| ≤ 10 nM | ≤ 10 nM | 100 to 1000 nM | 100 to 1000 nM | C=CC(=O)N1CC(Nc2ncnc3[nH]cc(CC4CC4)c23)CCC1CC (stereo not drawn) [Example 38, 1-(5-((5-(cyclopropylmethyl)-7H-pyrrolo[2,3-d]pyrimidin-4-yl)amino)-2-ethylpiperidin-1-yl)prop-2-en-1-one] |
| ≤ 10 nM | ≤ 10 nM | 100 to 1000 nM | ≤ 100 nM | C=CC(=O)N1C[C@H](Nc2ncnc3[nH]cc(C4CC4COC)c23)CC[C@@H]1C (mixture of isomers) [Example 44, 1-((2S,5R)-5-((5-(2-(methoxymethyl)cyclopropyl)-7H-pyrrolo[2,3-d]pyrimidin-4-yl)amino)-2-methylpiperidin-1-yl)prop-2-en-1-one] |
| ≤ 10 nM | ≤ 10 nM | 100 to 1000 nM | 100 to 1000 nM | C=CC(=O)N1C[C@H](Nc2ncnc3[nH]cc(C(=O)C4CC4)c23)CC[C@@H]1C [Example 32, 1-((2S,5R)-5-((5-(cyclopropanecarbonyl)-7H-pyrrolo[2,3-d]pyrimidin-4-yl)amino)-2-methylpiperidin-1-yl)prop-2-en-1-one] |
| 10 to 100 nM | 10 to 100 nM | > 1000 nM | 100 to 1000 nM | C=CC(=O)N1C[C@@H](Nc2ncnc3[nH]cc([C@@H]4CC4(F)F)c23)CC[C@H]1C(C)C (single isomer, unassigned) [Example 66] |
| ≤ 10 nM | ≤ 10 nM | 100 to 1000 nM | 100 to 1000 nM | C=CC(=O)N1C[C@H](Nc2ncnc3[nH]cc([C@@H]4C(C)(C)C4(F)F)c23)CC[C@@H]1C (single isomer, unassigned) [Example 54] |
| ≤ 10 nM | ≤ 10 nM | 100 to 1000 nM | ≤ 100 nM | C=CC(=O)N1C[C@H](Nc2ccnc3[nH]cc(C(=O)C4CC4)c23)CC[C@@H]1C [Example 34, 1-((2S,5R)-5-((3-(cyclopropanecarbonyl)-1H-pyrrolo[2,3-b]pyridin-4-yl)amino)-2-methylpiperidin-1-yl)prop-2-en-1-one] |
| > 100 nM | > 100 nM | > 1000 nM | 100 to 1000 nM | C=C(C)C(=O)N1C[C@H](Nc2ncnc3[nH]cc([C@H]4CC4(F)F)c23)CC[C@@H]1C (single isomer, unassigned) [Example 62] |
| ≤ 10 nM | 10 to 100 nM | 100 to 1000 nM | 100 to 1000 nM | C=CC(=O)N1CCC[C@@H](Nc2ccnc3[nH]cc(C(=O)C4CCCC4)c23)C1 [Example 13, (R)-1-(3-((3-(cyclopentanecarbonyl)-1H-pyrrolo[2,3-b]pyridin-4-yl)amino)piperidin-1-yl)prop-2-en-1-one] |
| 10 to 100 nM | ≤ 10 nM | ≤ 100 nM | > 1000 nM | C=CC(=O)N1CCC(Nc2cnc3[nH]cc(C(=O)C4CC4)c3n2)CC1 [Example 99, 1-(4-((7-(cyclopropanecarbonyl)-5H-pyrrolo[2,3-b]pyrazin-2-yl)amino)piperidin-1-yl)prop-2-en-1-one] |
